# Assay results taken from patent publication US10053431B2, “Tetrahydro-benzodiazepinones” (priority 2013, dated 2018).
# Counter-ions that a name gives are not always drawn. Like-named read-outs stand apart in the source and are kept apart here.
# Legend:
# BIR3 domain of XIAP = BIR3 domain of XIAP (Homo sapiens (Human), UniProt P98170); experiment: TR-FRET assay for BIR3 (inhibition of binding of XIAP BIR3 domain to SMAC-derived Peptide A); conditions: 6x His-tagged BIR3 domain (aa 241-356 of XIAP) 10 nM, Peptide A 20 nM, TR-FRET
# Sequence of BIR3 domain of XIAP (P98170 241-356 with tags or gaps limits assumed): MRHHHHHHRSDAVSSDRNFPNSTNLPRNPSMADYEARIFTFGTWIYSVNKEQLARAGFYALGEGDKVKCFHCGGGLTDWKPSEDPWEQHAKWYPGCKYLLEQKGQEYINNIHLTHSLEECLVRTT
# BIR2 domain of XIAP = BIR2 domain of XIAP (Homo sapiens (Human), UniProt P98170, C202A/C213G); experiment: TR-FRET assay for BIR2 (inhibition of binding of XIAP BIR2 domain to SMAC-derived Peptide A)
# Sequence of BIR2 domain of XIAP (P98170 124-240 with tags or gaps C202A/C213G limits assumed): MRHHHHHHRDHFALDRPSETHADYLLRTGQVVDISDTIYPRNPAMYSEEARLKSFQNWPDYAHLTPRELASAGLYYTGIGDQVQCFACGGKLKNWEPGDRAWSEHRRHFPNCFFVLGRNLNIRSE
# [1] = 6x His-tagged BIR2 domain (aa 124-240 of XIAP) 10 nM, Peptide A 20 nM, TR-FRET, read-out: IC50 BIR2
SMILES,IC50 (BIR3 domain of XIAP) [nM],IC50 (BIR2 domain of XIAP; [1]) [nM],IC50 (BIR2 domain of XIAP; IC50 BIR2) [nM]
"CN[C@@H](C)C(=O)NC1C(=O)N(Cc2c(C)ccc3ccccc23)c2ccccc2N(c2ccccc2)C1=O (stereo partly drawn) [Example 116, (2S)-2-(methylamino)-N-(1-((2-methylnaphthalen-1-yl)methyl)-2,4-dioxo-5-phenyl-2,3,4,5-tetrahydro-1H-benzo[b][1,4]diazepin-3-yl)propanamide]",> 54800,–,39.8
"CN[C@@H](C)C(=O)N[C@H]1CN(C(=O)c2ccc(C(C)=O)cc2)c2cc(Cl)ccc2N(Cc2c(OC)ccc3c(Br)cccc23)C1=O [Example 125, (S)-N-((S)-5-(4-acetylbenzoyl)-1-((5-bromo-2-methoxynaphthalen-1-yl)methyl)-7-chloro-2-oxo-2,3,4,5-tetrahydro-1H-benzo[b][1,4]diazepin-3-yl)-2-(methylamino)propanamide hydrochloride]",25600,7.92,–
"CN[C@@H](C)C(=O)NC1C(=O)N(Cc2c(OC)ccc3cc(Br)ccc23)c2ccccc2N(c2ccccc2)C1=O (stereo partly drawn) [Example 128, (2S)-N-(1-((6-bromo-2-methoxynaphthalen-1-yl)methyl)-2,4-dioxo-5-phenyl-2,3,4,5-tetrahydro-1H-benzo[b][1,4]diazepin-3-yl)-2-(methylamino)propanamide]",44800,–,4.99
"CCN[C@@H](CC)C(=O)NC1C(=O)N(Cc2c(OC)ccc3c(Br)cccc23)c2ccccc2N(c2ccccc2)C1=O (stereo partly drawn) [Example 134, (2S)-N-(1-((5-bromo-2-methoxynaphthalen-1-yl)methyl)-2,4-dioxo-5-phenyl-2,3,4,5-tetrahydro-1H-benzo[b][1,4]diazepin-3-yl)-2-(ethylamino)butanamide]",> 54800,–,32.5
"CN[C@@H](C)C(=O)N[C@H]1CN(C(=O)c2ccc(C#N)cc2)c2cc(Cl)ccc2N(Cc2c(OCC(F)(F)F)ccc3cc(Br)ccc23)C1=O [Example 135, (S)-N-((S)-1-((6-bromo-2-(2,2,2-trifluoroethoxy)naphthalen-1-yl)methyl)-7-chloro-5-(4-cyanobenzoyl)-2-oxo-2,3,4,5-tetrahydro-1H-benzo[b][1,4]diazepin-3-yl)-2-(methylamino)propanamide hydrochloride]",36200,32,–
"CC[C@H](N)C(=O)NC1C(=O)N(Cc2c(OC)ccc3c(Br)cccc23)c2ccccc2N(c2ccccc2)C1=O (stereo partly drawn) [Example 137, (2S)-2-amino-N-(1-((5-bromo-2-methoxynaphthalen-1-yl)methyl)-2,4-dioxo-5-phenyl-2,3,4,5-tetrahydro-1H-benzo[b][1,4]diazepin-3-yl)butanamide]",> 54800,–,29.8
"CC[C@H](NCCO)C(=O)NC1C(=O)N(Cc2c(OC)ccc3c(Br)cccc23)c2ccccc2N(c2ccccc2)C1=O (stereo partly drawn) [Example 138, (2S)-N-(1-((5-bromo-2-methoxynaphthalen-1-yl)methyl)-2,4-dioxo-5-phenyl-2,3,4,5-tetrahydro-1H-benzo[b][1,4]diazepin-3-yl)-2-(2-hydroxyethylamino)butanamide]",> 54800,69.4,–
"CN[C@@H](C)C(=O)N[C@H]1CN(C(=O)c2ccc(C#N)cc2)c2cc(C#N)ccc2N(Cc2c(OC)ccc3c(Br)cccc23)C1=O [Example 143, (S)-N-((S)-1-((5-bromo-2-methoxynaphthalen-1-yl)methyl)-7-cyano-5-(4-cyanobenzoyl)-2-oxo-2,3,4,5-tetrahydro-1H-benzo[b][1,4]diazepin-3-yl)-2-(methylamino)propanamide hydrochloride]",16300,5.11,–
"CCN[C@@H](C)C(=O)N[C@H]1CN(C(=O)CS(C)(=O)=O)c2ccccc2N(Cc2c(OC)ccc3cc(Br)ccc23)C1=O [Example 149, (S)-N-((S)-1-((6-bromo-2-methoxynaphthalen-1-yl)methyl)-5-(2-(methylsulfonyl)acetyl)-2-oxo-2,3,4,5-tetrahydro-1H-benzo[b][1,4]diazepin-3-yl)-2-(ethylamino)propanamide]",> 54800,183,–
"CCN[C@@H](CC)C(=O)N[C@H]1CN(C(=O)CS(C)(=O)=O)c2ccccc2N(Cc2c(OC)ccc3c(Br)cccc23)C1=O [Example 155, (S)-N-((S)-1-((5-bromo-2-methoxynaphthalen-1-yl)methyl)-5-(2-(methylsulfonyl)acetyl)-2-oxo-2,3,4,5-tetrahydro-1H-benzo[b][1,4]diazepin-3-yl)-2-(ethylamino)butanamide hydrochloride]",> 54800,18.6,–
"CN[C@@H](C)C(=O)N[C@H]1CN(C(=O)CS(C)(=O)=O)c2cc(C#N)ccc2N(Cc2c(OC)ccc3c(Br)cccc23)C1=O [Example 160, (S)-N-((S)-1-((5-bromo-2-methoxynaphthalen-1-yl)methyl)-7-cyano-5-(2-(methylsulfonyl)acetyl)-2-oxo-2,3,4,5-tetrahydro-1H-benzo[b][1,4]diazepin-3-yl)-2-(methylamino)propanamide hydrochloride]",> 54800,16.1,–
"CN[C@@H](C)C(=O)N[C@H]1CN(C(=O)CS(C)(=O)=O)c2cc(C#N)ccc2N(Cc2nn(-c3ccccc3C#N)c3ccccc23)C1=O [Example 161, (2S)-N-[(3S)-7-cyano-1-[[1-(2-cyanophenyl)indazol-3-yl]methyl]-5-(2-methylsulfonylacetyl)-2-oxo-3,4-dihydro-1,5-benzodiazepin-3-yl]-2-(methylamino)propanamide;2,2,2-trifluoroacetic acid]",> 54800,53.9,–

# More lines, main results first:
IC50 (BIR3 domain of XIAP) [nM],IC50 (BIR2 domain of XIAP; [1]) [nM],SMILES,IC50 (BIR2 domain of XIAP; IC50 BIR2) [nM]
> 54800,6.28,"CN[C@@H](C)C(=O)N[C@H]1CN(C(=O)c2ccc(C(C)=O)cc2)c2ccccc2N(Cc2nn(-c3ccccc3C#N)c3ccccc23)C1=O [Example 120, (S)-N-((S)-5-(4-acetylbenzoyl)-1-((1-(2-cyanophenyl)-1H-indazol-3-yl)methyl)-2-oxo-2,3,4,5-tetrahydro-1H-benzo[b][1,4]diazepin-3-yl)-2-(methylamino)propanamide 2,2,2-trifluoroacetate]",–
46400,14.8,"CN[C@@H](C)C(=O)N[C@H]1CN(C(=O)c2ccc(N)cc2)c2cc(Cl)ccc2N(Cc2c(C)ccc3ccccc23)C1=O [Example 121, (S)-N-((S)-5-(4-aminobenzoyl)-7-chloro-1-((2-methylnaphthalen-1-yl)methyl)-2-oxo-2,3,4,5-tetrahydro-1H-benzo[b][1,4]diazepin-3-yl)-2-(methylamino)propanamide hydrochloride]",–
18700,6.71,"CN[C@@H](C)C(=O)N[C@H]1CN(C(=O)c2ccc(N)cc2)c2cc(Cl)ccc2N(Cc2c(OC)ccc3c(Br)cccc23)C1=O [Example 123, (S)-N-((S)-5-(4-aminobenzoyl)-1-((5-bromo-2-methoxynaphthalen-1-yl)methyl)-7-chloro-2-oxo-2,3,4,5-tetrahydro-1H-benzo[b][1,4]diazepin-3-yl)-2-(methylamino)propanamide hydrochloride]",–
21500,17.2,"CN[C@@H](C)C(=O)N[C@H]1CN(C(=O)c2ccc(F)cc2)c2cc(Cl)ccc2N(Cc2c(OC)ccc3c(Br)cccc23)C1=O [Example 126, (S)-N-((S)-1-((5-bromo-2-methoxynaphthalen-1-yl)methyl)-7-chloro-5-(4-fluorobenzoyl)-2-oxo-2,3,4,5-tetrahydro-1H-benzo[b][1,4]diazepin-3-yl)-2-(methylamino)propanamide hydrochloride]",–
16400,35.6,"CN[C@@H](C)C(=O)N[C@H]1CN(C(=O)c2ccc(F)cc2)c2cc(Cl)ccc2N(Cc2c(OC)ccc3cc(Br)ccc23)C1=O [Example 130, (S)-N-((S)-1-((6-bromo-2-methoxynaphthalen-1-yl)methyl)-7-chloro-5-(4-fluorobenzoyl)-2-oxo-2,3,4,5-tetrahydro-1H-benzo[b][1,4]diazepin-3-yl)-2-(methylamino)propanamide hydrochloride]",–
36900,34.7,"CN[C@@H](C)C(=O)N[C@H]1CN(C(=O)c2ccc(C#N)cc2)c2cc(Cl)ccc2N(Cc2c(OC(F)F)ccc3ccccc23)C1=O [Example 139, (S)-N-((S)-7-chloro-5-(4-cyanobenzoyl)-1-((2-(difluoromethoxy)naphthalen-1-yl)methyl)-2-oxo-2,3,4,5-tetrahydro-1H-benzo[b][1,4]diazepin-3-yl)-2-(methylamino)propanamide hydrochloride]",–
49000,28.4,"CN[C@@H](C)C(=O)N[C@H]1CN(C(=O)c2ccc(F)cc2)c2cc(C#N)ccc2N(Cc2c(OC(F)F)ccc3ccccc23)C1=O [Example 151, (S)-N-((S)-7-cyano-1-((2-(difluoromethoxy)naphthalen-1-yl)methyl)-5-(4-fluorobenzoyl)-2-oxo-2,3,4,5-tetrahydro-1H-benzo[b][1,4]diazepin-3-yl)-2-(methylamino)propanamide hydrochloride]",–
> 54800,18.2,"CN[C@@H](C)C(=O)N[C@H]1CN(C(=O)c2ccc3cn[nH]c3c2)c2ccccc2N(Cc2c(C)ccc3ccccc23)C1=O [Example 158, (2S)-N-[(3S)-1-(1H-indazole-6-carbonyl)-5-[(2-methylnaphthalen-1-yl)methyl]-4-oxo-2,3-dihydro-1,5-benzodiazepin-3-yl]-2-(methylamino)propanamide]",–
> 54800,18.3,"CN[C@@H](C)C(=O)N[C@H]1CN(C(=O)c2ccc(C(C)=O)cc2)c2cc(C#N)ccc2N(Cc2nn(-c3ccccc3C#N)c3ccccc23)C1=O [Example 162, (S)-N-((S)-5-(4-acetylbenzoyl)-7-cyano-1-((1-(2-cyanophenyl)-1H-indazol-3-yl)methyl)-2-oxo-2,3,4,5-tetrahydro-1H-benzo[b][1,4]diazepin-3-yl)-2-(methylamino)propanamide hydrochloride]",–
